Results published in patent US20040157740A1, “Heterocyclyl phenyl benzyl ethers used as fungicides” (priority 2001, published 2004).

Test: logP determination by HPLC (EEC Directive 79/831 Annexe V. A8, gradient method)
Format: physicochemical
Conditions: pH 2; read-out: log P (pH 2)

Row | SMILES | chromatographic logP
1 | Cc1cc(-c2nnnn2C)ccc1O [1-methyl-5-(3-methyl-4-hydroxyphenyl)tetrazole] | 1.04
2 | CO/N=C(/C(=O)OC)c1ccccc1COc1ccc(-c2nnn(C)n2)cc1C [Example 1, methyl 2-[4-(2-methyltetrazol-5-yl)-2-methylphenoxy]methylphenylglyoxylate O-methyl oxime] | 3.08
3 | CNC(=O)/C(=N/OC)c1ccccc1COc1ccc(-c2nnn(C)n2)cc1C [Example 2, N-methyl-2-[4-(2-methyltetrazol-5-yl)-2-methylphenoxy]methylphenylglyoxylamide O-methyl oxime] | 2.58
4 | CCc1nc(-c2ccc(OCc3ccccc3/C(=N\OC)C(=O)OC)c(C)c2)no1 [Example 3, methyl 2-[4-(5-ethyl-1,2,4-oxadiazol-3-yl)-2-methylphenoxy]methylphenylglyoxylate O-methyl oxime] | 3.8
5 | CCc1nc(-c2ccc(OCc3ccccc3/C(=N\OC)C(=O)NC)c(C)c2)no1 [Example 4, N-methyl-2-[4-(5-ethyl-1,2,4-oxadiazol-3-yl)-2-methylphenoxy]methylphenylglyoxylamide O-methyl oxime] | 3.24
6 | CO/N=C(/C(=O)OC)c1ccccc1COc1ccc(-c2nc(C(F)(F)F)ns2)cc1C [Example 5, methyl 2-[4-(3-trifluoromethyl-1,2,4-thiadiazol-5-yl)-2-methylphenoxy]methylphenylglyoxylate O-methyl oxime] | 4.62
7 | CNC(=O)/C(=N/OC)c1ccccc1COc1ccc(-c2nc(C(F)(F)F)ns2)cc1C [Example 6, N-methyl-2-[4-(3-trifluoromethyl-1,2,4-thiadiazol-5-yl)-2-methylphenoxy]methylphenylglyoxylamide O-methyl oxime] | 4.08
8 | Cc1cc(-c2nnn(C)n2)ccc1O [Example III-1, 2-methyl-5-(3-methyl-4-hydroxyphenyl)tetrazole] | 1.45
9 | CCc1nc(-c2ccc(O)c(C)c2)no1 [Example III-2, 5-ethyl-3-(3-methyl-4-hydroxyphenyl)-1,2,4-oxadiazole] | 2.08
10 | Cc1cc(-c2nc(C(F)(F)F)ns2)ccc1O [Example III-3, 3-trifluoromethyl-5-(3-methyl-4-hydroxyphenyl)-1,2,4-thiadiazole] | 3.1
11 | Cc1cc(-c2nnn(C(C)(C)C)n2)ccc1O [Example III-4] | 2.54
12 | C#CCn1nnc(-c2ccc(O)c(C)c2)n1 [Example III-5] | 1.81
13 | C#CCn1nnnc1-c1ccc(O)c(C)c1 [Example III-6] | 1.41
14 | Cc1cc(-c2nnn(C(F)F)n2)ccc1O [Example III-7] | 2.18
15 | Cc1cc(-c2nnnn2C(F)F)ccc1O [Example III-8] | 1.75
16 | COc1ccc(-c2nn[nH]n2)cc1C [Example V-1, 5-(3-methyl-4-methoxyphenyl)tetrazole] | 1.51
17 | COc1ccc(-c2nnn(C)n2)cc1C [Example V-2, 2-methyl-5-(3-methyl-4-methoxyphenyl)tetrazole] | 2.38
18 | COc1ccc(-c2nnn(C(C)(C)C)n2)cc1C [Example V-3] | 3.78
19 | C#CCn1nnnc1-c1ccc(OC)c(C)c1 [Example V-5] | 2.12
20 | COc1ccc(-c2nnn(C(F)F)n2)cc1C [Example V-6] | 3.24
21 | COc1ccc(-c2nnnn2C(F)F)cc1C [Example V-7] | 2.51
22 | CCc1nc(-c2ccc(OC)c(C)c2)no1 [Example V-8] | 3.19
23 | Cc1cc(-c2nc(C(F)(F)F)ns2)ccc1OCc1ccc(Cl)cc1 [Example V-9, 3-trifluoromethyl-5-[3-methyl-4-(4-chlorobenzyloxy)phenyl]-1,2,4-thiadiazole] | 5.78
24 | C#CCn1nnc(-c2ccc(OC)c(C)c2)n1 [Example V-44] | 2.75
25 | COc1ccc(/C(N)=N/O)cc1C [Example VII-I, 3-methyl-4-methoxybenzamideoxime] | 0.36
